Drawing on the NIST ThermoML archive (doi:10.1016/j.fluid.2013.06.019), this text covers Triple point temperature for three molecules.

± gives the expanded uncertainty stated by the source.

For this data set the following is noted: Crystal; Heating/Cooling curves.
For `C=C(F)C(F)(F)F` [2,3,3,3-tetrafluoro-1-propene], the Triple point temperature was determined as 122.6 ± 2 K.

`O=C=O` [carbon dioxide]: the Triple point temperature was determined as 216.6 ± 2 K.

`F/C=C/C(F)(F)F` [trans-1,3,3,3-tetrafluoropropene]: the Triple point temperature came out at 168.8 ± 2 K.
